The EC50 is the concentration that produces a half-maximal response.

Assay [1] is described as follows: Cytotoxicity against Rattus norvegicus Sprague-Dawley (rat) astrocytes after 4 days by cresylecth violet-staining method. In kind it is cell-based, Astrocyte.
The subject of assay [2] is C6. In words: Cytotoxicity against Rattus norvegicus (rat) C6 cells after 4 days by cresylecth violet-staining method. In kind it is functional, cell-based.
The test system of assay [3] is C6. Kind of assay: Ratio of EDL-155 EC50 to compound EC50 for Rattus norvegicus (rat) C6 cells. Type of assay: functional.
The mark [4] stands for this setting: Rattus norvegicus, Sprague-Dawley, Astrocyte, 96 h, read-out: EC50.

In the case of `COc1cc2c(c(OC)c1)C(Cc1ccc(-c3ccccc3)cc1)NCC2` (stereo not drawn), the EC50 in assay [1] (setting [4]) was determined as 8.95 µM; in the assay on C6 [2] (Rattus norvegicus, C6, 96 h) it was 2.31 µM.

Regarding `COc1cc2c(c(OC)c1)C(Cc1ccc(-c3ccccc3)cc1)N(C(=O)OC(C)(C)C)CC2` (stereo not drawn), the EC50 entry in assay [1] (astrocyte) is “Not Active”; in the assay with C6 [2] (Rattus norvegicus, C6, 96 h), 7.54 µM.

In the case of `O=NN(CCCl)C(=O)NCCCl` [CARMUSTINE], the EC50 was found to be 54.8 µM in assay [1] (setting [4]) and 4.8 µM with C6 [2] (Rattus norvegicus, C6, 96 h).

For `CC(C)(C)OC(=O)N1CCc2cc(O)cc(O)c2C1Cc1ccc(-c2ccccc2)cc1` (stereo not drawn), the EC50 stood at 8.58 µM in assay [1] (setting [4]) and 4.97 µM in the assay on C6 [2] (Rattus norvegicus, C6, 96 h).

Consider `COc1cc2c(c(OC)c1)C(Cc1ccc(-c3ccccc3OC)cc1)NCC2` (stereo in doubt; (-)25), for which the concentration for a half-maximal effect (EC50) was found to be 15.7 µM in assay [1] (setting [4]) and 5.39 µM in the assay with C6 [2] (c6).

Take `Cn1nnc2c(C(N)=O)ncn2c1=O` [TEMOZOLOMIDE]: the EC50 stood at 51.8 µM in assay [1] (setting [4]) and 16.5 µM in the assay with C6 [2] (Rattus norvegicus, C6, 96 h).

With `Oc1cc(O)c2c(c1)CCNC2Cc1ccc(-c2ccccc2)cc1` (stereo not drawn), the EC50 in assay [1] (setting [4]) was 11.9 µM; in the assay on C6 [2] (Rattus norvegicus, C6, 96 h), 2.09 µM.

As for `Oc1cc(O)c2c(c1)CCNC2Cc1ccc(Br)cc1` (stereo not drawn), the EC50 in assay [1] (setting [4]) was determined as 23.9 µM; in the assay with C6 [2] (Rattus norvegicus, C6, 96 h) it was 12.6 µM.

Consider `COc1cc2c(c(OC)c1)C(Cc1ccc(-c3ccccc3OC)cc1)N(C(=O)OC(C)(C)C)CC2` (stereo not drawn), for which the EC50 entry in assay [1] (astrocyte) is “Not Active”; in the assay on C6 [2] (Rattus norvegicus, C6, 96 h), 59.7 µM.

Regarding `COc1ccccc1-c1ccc(CC2NCCc3cc(O)cc(O)c32)cc1` (stereo not drawn), the EC50 in assay [1] (setting [4]) is 15.7 µM; in the assay with C6 [2] (Rattus norvegicus, C6, 96 h), 2.61 µM.

Consider `Oc1cc2c(cc1O)C(Cc1ccc(-c3ccccc3)cc1)NCC2` (racemic), for which the EC50 in assay [1] (setting [4]) was 27.4 µM; in the assay with C6 [2] (Rattus norvegicus, C6, 96 h), 1.5 µM.

Consider `CC(C)(C)OC(=O)N1CCc2cc(O)cc(O)c2C1Cc1ccc(Br)cc1` (stereo not drawn), for which the EC50 in assay [1] (setting [4]) turned out to be 9.97 µM; with C6 [2] (Rattus norvegicus, C6, 96 h), 7.04 µM.

As for `COc1cc2c(c(OC)c1)C(Cc1ccc(-c3ccccc3OC)cc1)NCC2` (single isomer, unassigned; (+)), the EC50 was found to be 13.1 µM in assay [1] (astrocyte, read-out: EC50) and 0.26 µM in the assay with C6 [2] (c6).

Take `COc1ccccc1-c1ccc(CC2c3c(O)cc(O)cc3CCN2C(=O)OC(C)(C)C)cc1` (stereo not drawn): the EC50 in assay [1] (setting [4]) came to 67.5 µM; in the assay with C6 [2] (Rattus norvegicus, C6, 96 h) it was 7.34 µM.

Consider `COc1cc2c(c(OC)c1)C(Cc1ccc(Br)cc1)N(C(=O)OC(C)(C)C)CC2` (stereo not drawn), for which the EC50 was 28.1 µM in assay [1] (setting [4]) and 10.1 µM in the assay with C6 [2] (Rattus norvegicus, C6, 96 h).

Regarding `COc1cc2c(c(OC)c1)C(Cc1ccc(-c3ccccc3OC)cc1)NCC2.Cl` (stereo in doubt; 25), in the assay on C6 [3], the “Ratio EC50” value amounted to 2.4. Also, the EC50 turned out to be 10.8 µM in assay [1] (astrocyte, read-out: EC50) and 0.63 µM in the assay with C6 [2] (c6).

Values taken from ChEMBL document CHEMBL3045681, “Synthesis and evaluation of new 1,2,3,4-tetrahydroisoquinoline analogs as antiglioma agents” (Med Chem Res, 2011).
